Assay results reported in patent US9108944B2, “Androgen receptor modulators and uses thereof” (ARAGON PHARMACEUTICALS, INC., priority 2010, dated 2015).

What was measured:
[1] = molecular target: T1, AR-VP16 (Homo sapiens, UniProt P10275); test: AR-VP16 DNA Binding Assay, agonist mode (HepG2 cells); assay type: cell-based; conditions: Emax >20x DMSO control = agonist
T1 sequence (P10275 560-920 limits assumed): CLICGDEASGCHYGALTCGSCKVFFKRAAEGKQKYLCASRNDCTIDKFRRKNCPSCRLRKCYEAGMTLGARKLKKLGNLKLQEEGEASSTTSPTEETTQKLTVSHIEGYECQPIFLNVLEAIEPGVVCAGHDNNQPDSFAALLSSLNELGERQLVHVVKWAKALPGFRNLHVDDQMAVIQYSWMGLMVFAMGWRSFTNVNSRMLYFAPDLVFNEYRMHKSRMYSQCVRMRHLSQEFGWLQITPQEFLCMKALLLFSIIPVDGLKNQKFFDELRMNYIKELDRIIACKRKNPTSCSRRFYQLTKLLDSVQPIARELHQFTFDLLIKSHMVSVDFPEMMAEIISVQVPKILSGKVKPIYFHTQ

[2] = molecular target: T1, AR-VP16; test: AR-VP16 DNA Binding Assay, antagonist mode (HepG2 cells, 0.1 nM R1881); assay type: cell-based
How it was run: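 HepG2 cells transiently transfected with AR-VP16 (Lipofectin), incubated overnight, then treated with compound in RPMI with charcoal-stripped serum. Antagonist mode adds R1881 at 0.1 nM final. Cells lysed after 48 h incubation for read-out.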

Q: Which results are given for `Cc1cc(N2C(=O)C3(CCC3)N(c3ccc(O)c(F)c3)C2=S)cnc1C#N` [Compound 54, 5-(5-(3-Fluoro-4-hydroxyphenyl)-8-oxo-6-thioxo-5,7-diazaspiro[3.4]octan-7-yl)-3-methylpicolinonitrile]?
A: ARVP16 DNA Binding Assay (Agonist mode): Agonist? [1]: No (Agonist defined as a compound whose Emax in the ARVP16 DNA Binding Assay (Agonist mode) is >20x DMSO control); IC50 [2]: > 1000 nM

Q: `COc1ccc(N2C(=S)N(c3cnc(C#N)c(C(F)(F)F)c3)C(=O)C23CCC3)cc1F` [Compound 203, 5-(5-(3-Fluoro-4-methoxyphenyl)-8-oxo-6-thioxo-5,7-diazaspiro[3.4]octan-7-yl)-3-(trifluoromethyl)picolinonitrile] was tested. Which “ARVP16 DNA Binding Assay (Agonist mode): Agonist?” value (from here on “ARVP16 DNA Binding Assay”) [1] did it give?
A: No (Agonist defined as a compound whose Emax in the ARVP16 DNA Binding Assay (Agonist mode) is >20x DMSO control)

Q: And the IC50 [2]?
A: < 1000 nM

Q: What does the source list for `N#Cc1ncc(N2C(=O)C3(CCC3)N(c3ccc(OC4CCNCC4)cc3)C2=S)cc1C(F)(F)F` [Compound 211, 5-(8-Oxo-5-(4-(piperidin-4-yloxy)phenyl)-6-thioxo-5,7-diazaspiro[3.4]octan-7-yl)-3-(trifluoromethyl)picolinonitrile]?
A: ARVP16 DNA Binding Assay (Agonist mode): Agonist? [1]: No (Agonist defined as a compound whose Emax in the ARVP16 DNA Binding Assay (Agonist mode) is >20x DMSO control); IC50 [2]: < 1000 nM

Q: With `Cc1ccc(N2C(=S)N(c3cnc(C#N)c(C(F)(F)F)c3)C(=O)C23CCC3)c(F)c1` [Compound 50, 5-(5-(2-Fluoro-4-methylphenyl)-8-oxo-6-thioxo-5,7-diazaspiro[3.4]octan-7-yl)-3-(trifluoromethyl)picolinonitrile] as the molecule, how does the “ARVP16 DNA Binding Assay” value [1] read?
A: No (Agonist defined as a compound whose Emax in the ARVP16 DNA Binding Assay (Agonist mode) is >20x DMSO control)

Q: What about the IC50 [2] of the same molecule?
A: < 1000 nM

Q: Which “ARVP16 DNA Binding Assay” value [1] does the source give for `N#Cc1ncc(N2C(=O)C3(CCC3)N(c3ccc(OCCCCSCCCC(F)(F)C(F)(F)F)c(F)c3)C2=S)cc1C(F)(F)F` [Compound 151, 5-(5-(3-Fluoro-4-(4-((4,4,5,5,5-pentafluoropentyl)thio)butoxy)phenyl)-8-oxo-6-thioxo-5,7-diazaspiro[3.4]octan-7-yl)-3-(trifluoromethyl)picolinonitrile] here?
A: No (Agonist defined as a compound whose Emax in the ARVP16 DNA Binding Assay (Agonist mode) is >20x DMSO control)

Q: What about the IC50 [2] of the same molecule?
A: > 1000 nM

Q: For `Cc1ccc(N2C(=S)N(c3cnc(C#N)c4ccccc34)C(=O)C23CCC3)cc1` [Compound 65, 4-(8-Oxo-6-thioxo-5-(p-tolyl)-5,7-diazaspiro[3.4]octan-7-yl)isoquinoline-1-carbonitrile], which “ARVP16 DNA Binding Assay” value [1] is on record?
A: Yes (Agonist defined as a compound whose Emax in the ARVP16 DNA Binding Assay (Agonist mode) is >20x DMSO control)

Q: And the IC50 [2]?
A: < 1000 nM

Q: `N#Cc1ncc(N2C(=O)C3(CCC3)N(c3ccc(OC4CCN(C(N)=O)CC4)cc3)C2=S)cc1C(F)(F)F` [Compound 222, 4-(4-(7-(6-Cyano-5-(trifluoromethyl)pyridin-3-yl)-8-oxo-6-thioxo-5,7-diazaspiro[3.4]octan-5-yl)phenoxy)piperidine-1-carboxamide] was tested. Which “ARVP16 DNA Binding Assay” value [1] did it give?
A: Yes (Agonist defined as a compound whose Emax in the ARVP16 DNA Binding Assay (Agonist mode) is >20x DMSO control)

Q: What about the IC50 [2] of the same molecule?
A: < 1000 nM

Q: For `CNC(=O)c1ccc(N2C(=S)N(c3cnc(C#N)c(C(F)(F)F)c3)C(=O)C23CCC3)c(F)c1` [Compound 89, 4-(7-(6-Cyano-5-(trifluoromethyl)pyridin-3-yl)-8-oxo-6-thioxo-5,7-diazaspiro[3.4]octan-5-yl)-3-fluoro-N-methylbenzamide], which “ARVP16 DNA Binding Assay” value [1] is on record?
A: No (Agonist defined as a compound whose Emax in the ARVP16 DNA Binding Assay (Agonist mode) is >20x DMSO control)

Q: And the IC50 [2]?
A: < 1000 nM

Q: Which results are given for `N#Cc1ncc(N2C(=O)C3(CCC3)N(c3ccc(-c4ccccn4)cc3)C2=S)cc1C(F)(F)F` [Compound 16, 5-(8-Oxo-5-(4-(pyridin-2-yl)phenyl)-6-thioxo-5,7-diazaspiro[3.4]octan-7-yl)-3-(trifluoromethyl)picolinonitrile]?
A: ARVP16 DNA Binding Assay (Agonist mode): Agonist? [1]: No (Agonist defined as a compound whose Emax in the ARVP16 DNA Binding Assay (Agonist mode) is >20x DMSO control); IC50 [2]: < 1000 nM

Q: What does the source list for `N#Cc1ncc(N2C(=O)C3(CCC3)N(c3ccc(F)c(C(=O)O)c3)C2=S)cc1C(F)(F)F` [Compound 226, 5-(7-(6-Cyano-5-(trifluoromethyl)pyridin-3-yl)-8-oxo-6-thioxo-5,7-diazaspiro[3.4]octan-5-yl)-2-fluorobenzoic acid]?
A: ARVP16 DNA Binding Assay (Agonist mode): Agonist? [1]: No (Agonist defined as a compound whose Emax in the ARVP16 DNA Binding Assay (Agonist mode) is >20x DMSO control); IC50 [2]: > 1000 nM

Q: How did the “ARVP16 DNA Binding Assay” value [1] turn out when `CN(C)S(=O)(=O)c1ccc(N2C(=S)N(c3cnc(C#N)c(C(F)(F)F)c3)C(=O)C23CCC3)cc1` [Compound 121, 4-(7-(6-Cyano-5-(trifluoromethyl)pyridin-3-yl)-8-oxo-6-thioxo-5,7-diazaspiro[3.4]octan-5-yl)-N,N-dimethylbenzenesulfonamide] was run?
A: No (Agonist defined as a compound whose Emax in the ARVP16 DNA Binding Assay (Agonist mode) is >20x DMSO control)

Q: What about the IC50 [2] of the same molecule?
A: > 1000 nM

Q: With `N#Cc1ncc(N2C(=O)C3(CCC3)N(c3ccc(CCCO)cc3)C2=S)cc1C(F)(F)F` [Compound 86, 5-(5-(4-(3-hydroxypropyl)phenyl)-8-oxo-6-thioxo-5,7-diazaspiro[3.4]octan-7-yl)-3-(trifluoromethyl)picolinonitrile] as the molecule, how does the “ARVP16 DNA Binding Assay” value [1] read?
A: No (Agonist defined as a compound whose Emax in the ARVP16 DNA Binding Assay (Agonist mode) is >20x DMSO control)

Q: What about the IC50 [2] of the same molecule?
A: < 1000 nM

Q: Which “ARVP16 DNA Binding Assay” value [1] does the source give for `Cc1ccc(CN2C(=S)N(c3cnc(C#N)c(C(F)(F)F)c3)C(=O)C23CCC3)cc1` [Compound 84, 5-(5-(4-Methylbenzyl)-8-oxo-6-thioxo-5,7-diazaspiro[3.4]octan-7-yl)-3-(trifluoromethyl)picolinonitrile] here?
A: Yes (Agonist defined as a compound whose Emax in the ARVP16 DNA Binding Assay (Agonist mode) is >20x DMSO control)

Q: And the IC50 [2]?
A: < 1000 nM

Q: For `Cc1cc(N2C(=O)C3(CCC3)N(c3ccc(OC4CCS(=O)(=O)CC4)cc3)C2=S)cnc1C#N` [Compound 201, 5-(5-(4-((1,1-Dioxidotetrahydro-2H-thiopyran-4-yl)oxy)phenyl)-8-oxo-6-thioxo-5,7-diazaspiro[3.4]octan-7-yl)-3-methylpicolinonitrile], which “ARVP16 DNA Binding Assay” value [1] is on record?
A: No (Agonist defined as a compound whose Emax in the ARVP16 DNA Binding Assay (Agonist mode) is >20x DMSO control)

Q: And the IC50 [2]?
A: < 1000 nM

Q: `O=C1N(c2ccc3nnc(C(F)(F)F)n3n2)C(=S)N(c2ccc(O)c(F)c2)C12CCC2` [Compound 117, 5-(3-Fluoro-4-hydroxyphenyl)-6-thioxo-7-(3-(trifluoromethyl)-[1,2,4]triazolo[4,3-b]pyridazin-6-yl)-5,7-diazaspiro[3.4]octan-8-one] was tested. Which “ARVP16 DNA Binding Assay” value [1] did it give?
A: No (Agonist defined as a compound whose Emax in the ARVP16 DNA Binding Assay (Agonist mode) is >20x DMSO control)

Q: And the IC50 [2]?
A: > 1000 nM

Q: How did the “ARVP16 DNA Binding Assay” value [1] turn out when `N#Cc1ncc(N2C(=O)C3(CCC3)N(c3ccc(OC4CCOCC4)cc3)C2=S)cc1C(F)(F)F` [Compound 198, 5-(8-Oxo-5-(4-((tetrahydro-2H-pyran-4-yl)oxy)phenyl)-6-thioxo-5,7-diazaspiro[3.4]octan-7-yl)-3-(trifluoromethyl)picolinonitrile] was run?
A: No (Agonist defined as a compound whose Emax in the ARVP16 DNA Binding Assay (Agonist mode) is >20x DMSO control)

Q: And the IC50 [2]?
A: < 1000 nM

Q: With `COCCN(C)C(=O)c1ccc(N2C(=S)N(c3cnc(C#N)c(C(F)(F)F)c3)C(=O)C23CCC3)cc1F` [Compound 250, 4-(7-(6-Cyano-5-(trifluoromethyl)pyridin-3-yl)-8-oxo-6-thioxo-5,7-diazaspiro[3.4]octan-5-yl)-2-fluoro-N-(2-methoxyethyl)-N-methylbenzamide] as the molecule, how does the “ARVP16 DNA Binding Assay” value [1] read?
A: No (Agonist defined as a compound whose Emax in the ARVP16 DNA Binding Assay (Agonist mode) is >20x DMSO control)

Q: What about the IC50 [2] of the same molecule?
A: > 1000 nM

Q: Which results are given for `N#Cc1ncc(N2C(=O)C3(CCC3)N(c3ccc(O)c(F)c3)C2=S)cc1C(F)(F)F` [Compound 1, 5-(5-(3-Fluoro-4-hydroxyphenyl)-8-oxo-6-thioxo-5,7-diazaspiro[3.4]octan-7-yl)-3-(trifluoromethyl)picolinonitrile]?
A: ARVP16 DNA Binding Assay (Agonist mode): Agonist? [1]: No (Agonist defined as a compound whose Emax in the ARVP16 DNA Binding Assay (Agonist mode) is >20x DMSO control); IC50 [2]: < 1000 nM

Q: With `Cc1cc(N2C(=O)C3(CCC3)N(c3ccc(C(=O)Nc4ccn(C)n4)c(F)c3)C2=S)cnc1C#N` [Compound 303, 4-(7-(6-Cyano-5-methylpyridin-3-yl)-8-oxo-6-thioxo-5,7-diazaspiro[3.4]octan-5-yl)-2-fluoro-N-(1-methyl-1H-pyrazol-3-yl)benzamide] as the molecule, how does the “ARVP16 DNA Binding Assay” value [1] read?
A: No (Agonist defined as a compound whose Emax in the ARVP16 DNA Binding Assay (Agonist mode) is >20x DMSO control)

Q: What about the IC50 [2] of the same molecule?
A: > 1000 nM

Q: With `Cc1cc(N2C(=O)C3(CCC3)N(c3ccc(OC4CCSCC4)cc3)C2=S)cnc1C#N` [Compound 195, 3-Methyl-5-(8-oxo-5-(4-((tetrahydro-2H-thiopyran-4-yl)oxy)phenyl)-6-thioxo-5,7-diazaspiro[3.4]octan-7-yl)picolinonitrile] as the molecule, how does the “ARVP16 DNA Binding Assay” value [1] read?
A: No (Agonist defined as a compound whose Emax in the ARVP16 DNA Binding Assay (Agonist mode) is >20x DMSO control)

Q: What about the IC50 [2] of the same molecule?
A: < 1000 nM
